This is an account of results in US11230538B2, “Herbicides” (SYNGENTA PARTICIPATIONS AG, priority 2016, dated 2022).

Holding throughout (format): in vivo
Assay [1] deals with Alopecurus myosuroides (ALOMY). In words: B1 Pre-emergence herbicidal activity. Also noted: key: 5=total damage to plant; 0=no damage to plant. To be noted: pre-emergence application, evaluated after 13 days. Summed up:
(§1)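 Damage was rated visually on a 0–5 scale (0 no damage, 5 total damage) 13 days after treatment. Soil-sown seeds had been sprayed one day after sowing with an aqueous acetone/water (50:50) solution containing 0.5% Tween 20, then kept in a glasshouse at 24/16 °C, 14 h light, 65% humidity.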

The test system of assay [2] is Avena fatua (AVEFA). In words: B1 Pre-emergence herbicidal activity. To be noted: pre-emergence application, evaluated after 13 days. Details: key: 5=total damage to plant; 0=no damage to plant. Summed up: as §1
Assay [3] has as its system Triticum aestivium (TRZAW). The assay can be described thus: B1 Pre-emergence herbicidal activity. Also noted: key: 5=total damage to plant; 0=no damage to plant. Particulars: pre-emergence application, evaluated after 13 days. Summed up:
as §1

The test system of assay [4] is Echinochloa crus-galli (ECHCG). In words: B1 Pre-emergence herbicidal activity. Details: key to Pre-emergence herbicidal activity, ECHCG (damage score 0-5): 5=total damage to plant; 0=no damage to plant. Particulars: pre-emergence application, evaluated after 13 days. Summed up:
as §1

For assay [5], the system named is Lolium perenne (LOLPE). The assay can be described thus: B1 Pre-emergence herbicidal activity. To be noted: pre-emergence application, evaluated after 13 days. Summed up: as §1
In assay [6] the test system is Setaria fabenr (SETFA). The assay can be described thus: B1 Pre-emergence herbicidal activity. Particulars: pre-emergence application, evaluated after 13 days. Also noted: key to Pre-emergence herbicidal activity, SETFA (damage score 0-5): 5=total damage to plant; 0=no damage to plant. Summed up: as §1
Assay [7] has as its system Avena fatua (AVEFA). In words: B2 Post-emergence herbicidal activity. Particulars: post-emergence application, evaluated after 13 days. The gist of the method:
(§2)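 Visual damage score (0 = none, 5 = total) taken 13 days after treatment. Seedlings had been cultivated 8 days in pots of standard soil before being sprayed with an aqueous solution of compound in acetone/water (50:50) containing 0.5% Tween 20.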

The test system of assay [8] is Echinochloa crus-galli (ECHCG). In words: B2 Post-emergence herbicidal activity. Details: key to Post-emergence herbicidal activity, ECHCG (damage score 0-5): 5=total damage to plant; 0=no damage to plant. To be noted: post-emergence application, evaluated after 13 days. Summed up: as §2
Assay [9] concerns Lolium perenne (LOLPE). In words: B2 Post-emergence herbicidal activity. To be noted: post-emergence application, evaluated after 13 days. Summed up: as §2
Assay [10] deals with Alopecurus myosuroides (ALOMY). In words: B2 Post-emergence herbicidal activity. Also noted: key: 5=total damage to plant; 0=no damage to plant. To be noted: post-emergence application, evaluated after 13 days. Summed up: as §2
Assay [11] has as its system Setaria fabenri (SETFA). The assay can be described thus: B2 Post-emergence herbicidal activity. Also noted: key: 5=total damage to plant; 0=no damage to plant. To be noted: post-emergence application, evaluated after 13 days. The gist of the method: as §2
Assay [12] relates to Triticum aestivium (TRZAW). In words: B2 Post-emergence herbicidal activity. Details: key: 5=total damage to plant; 0=no damage to plant. Particulars: post-emergence application, evaluated after 13 days. Summed up: as §2

For the molecule `CCC(=O)N(C(C)=O)c1ccc(-c2cncc(F)c2)nc1C(F)(F)F` [Compound C121, N-acetyl-N-[6-(5-fluoro-3-pyridyl)-2-(trifluoromethyl)-3-pyridyl]propanamide], the “Pre-emergence herbicidal activity, ALOMY (damage score 0-5)” value (shortened to “Pre-emergence herbicidal activity, ALOMY”) in assay [1] (rate 250 g/ha) was found to be 0. The “Pre-emergence herbicidal activity, AVEFA (damage score 0-5)” value (“Pre-emergence herbicidal activity, AVEFA” below) in [2] (rate 250 g/ha) came to 2. The “Pre-emergence herbicidal activity, TRAZW (damage score 0-5)” value (from here on “Pre-emergence herbicidal activity, TRAZW”) in [3] (rate 250 g/ha) turned out to be 0. Moreover, in [4] (rate 250 g/ha), the “Pre-emergence herbicidal activity, ECHCG (damage score 0-5)” value (shortened to “Pre-emergence herbicidal activity, ECHCG”) amounted to 3. Further, the “Pre-emergence herbicidal activity, LOLPE (damage score 0-5)” value (“Pre-emergence herbicidal activity, LOLPE” below) in [5] (rate 250 g/ha) was 1. In addition, in assay [6] (rate 250 g/ha), the “Pre-emergence herbicidal activity, SETFA (damage score 0-5)” value (from here on “Pre-emergence herbicidal activity, SETFA”) is on record as 5. The “Post-emergence herbicidal activity, AVEFA (damage score 0-5)” value in [7] (rate 250 g/ha) was determined as 4. Further, in [8] (rate 250 g/ha), the “Post-emergence herbicidal activity, ECHCG (damage score 0-5)” value is given as 4. Moreover, the “Post-emergence herbicidal activity, LOLPE (damage score 0-5)” value in [9] (rate 250 g/ha) amounted to 3. Further, the “Post-emergence herbicidal activity, ALOMY (damage score 0-5)” value in [10] (rate 250 g/ha) is listed as 1. Besides, the “Post-emergence herbicidal activity, SETFA (damage score 0-5)” value in assay [11] (rate 250 g/ha) is 5. In assay [12] (rate 250 g/ha), the “Post-emergence herbicidal activity, TRAZW (damage score 0-5)” value came to 1.

`C=CCN(C(=O)COC)c1ccc(-c2cncc(F)c2)nc1C(F)(F)F` [Compound C63]: the “Pre-emergence herbicidal activity, ALOMY” value in assay [1] (rate 1000 g/ha) came out at 0. Moreover, the “Pre-emergence herbicidal activity, AVEFA” value in assay [2] (rate 1000 g/ha) turned out to be 0. In addition, the “Pre-emergence herbicidal activity, TRAZW” value in assay [3] (rate 1000 g/ha) was 0. Further, the “Pre-emergence herbicidal activity, ECHCG” value in assay [4] (rate 1000 g/ha) was 2. In assay [5] (rate 1000 g/ha), the “Pre-emergence herbicidal activity, LOLPE” value amounted to 1. Further, in [6] (rate 1000 g/ha), the “Pre-emergence herbicidal activity, SETFA” value came to 4. The “Post-emergence herbicidal activity, AVEFA (damage score 0-5)” value in [7] (rate 1000 g/ha) is reported as 2. For the same molecule, the “Post-emergence herbicidal activity, ECHCG (damage score 0-5)” value in assay [8] (rate 1000 g/ha) was 4. Besides, the “Post-emergence herbicidal activity, LOLPE (damage score 0-5)” value in assay [9] (rate 1000 g/ha) is recorded as 2. Further, in [10] (rate 1000 g/ha), the “Post-emergence herbicidal activity, ALOMY (damage score 0-5)” value is on record as 1. Moreover, the “Post-emergence herbicidal activity, SETFA (damage score 0-5)” value in assay [11] (rate 1000 g/ha) is 4. For the same molecule, the “Post-emergence herbicidal activity, TRAZW (damage score 0-5)” value in assay [12] (rate 1000 g/ha) is recorded as 0.

As to `O=C(Nc1ccc(-c2cncc(F)c2)nc1C(F)(F)F)c1cncnc1` [Compound C120, N-[6-(5-fluoro-3-pyridyl)-2-(trifluoromethyl)-3-pyridyl]pyrimidine-5-carboxamide], in assay [1] (rate 1000 g/ha), the “Pre-emergence herbicidal activity, ALOMY” value worked out at 0. For the same molecule, the “Pre-emergence herbicidal activity, AVEFA” value in assay [2] (rate 1000 g/ha) was 3. Also, in assay [3] (rate 1000 g/ha), the “Pre-emergence herbicidal activity, TRAZW” value stood at 0. For the same molecule, the “Pre-emergence herbicidal activity, ECHCG” value in [4] (rate 1000 g/ha) was found to be 4. In assay [5] (rate 1000 g/ha), the “Pre-emergence herbicidal activity, LOLPE” value is on record as 1. The “Pre-emergence herbicidal activity, SETFA” value in assay [6] (rate 1000 g/ha) stood at 5. Also, the “Post-emergence herbicidal activity, AVEFA (damage score 0-5)” value in [7] (rate 1000 g/ha) came out at 3. Besides, the “Post-emergence herbicidal activity, ECHCG (damage score 0-5)” value in assay [8] (rate 1000 g/ha) is on record as 5. For the same molecule, in assay [9] (rate 1000 g/ha), the “Post-emergence herbicidal activity, LOLPE (damage score 0-5)” value was 3. For the same molecule, the “Post-emergence herbicidal activity, ALOMY (damage score 0-5)” value in assay [10] (rate 1000 g/ha) stood at 1. Further, in assay [11] (rate 1000 g/ha), the “Post-emergence herbicidal activity, SETFA (damage score 0-5)” value amounted to 5. Besides, the “Post-emergence herbicidal activity, TRAZW (damage score 0-5)” value in [12] (rate 1000 g/ha) was found to be 2.

As to `COC(=O)CCC(=O)N(C(=O)CCC(=O)OC)c1ccc(-c2cncc(F)c2)nc1C(F)(F)F` [Compound C119], in assay [1] (rate 1000 g/ha), the “Pre-emergence herbicidal activity, ALOMY” value came out at 0. Also, in assay [2] (rate 1000 g/ha), the “Pre-emergence herbicidal activity, AVEFA” value was found to be 2. For the same molecule, in [3] (rate 1000 g/ha), the “Pre-emergence herbicidal activity, TRAZW” value is given as 0. Besides, in assay [4] (rate 1000 g/ha), the “Pre-emergence herbicidal activity, ECHCG” value is 5. The “Pre-emergence herbicidal activity, LOLPE” value in assay [5] (rate 1000 g/ha) is reported as 1. The “Pre-emergence herbicidal activity, SETFA” value in [6] (rate 1000 g/ha) is listed as 5. In addition, the “Post-emergence herbicidal activity, AVEFA (damage score 0-5)” value in assay [7] (rate 1000 g/ha) amounted to 4. Also, in [8] (rate 1000 g/ha), the “Post-emergence herbicidal activity, ECHCG (damage score 0-5)” value came to 5. For the same molecule, the “Post-emergence herbicidal activity, LOLPE (damage score 0-5)” value in assay [9] (rate 1000 g/ha) came to 3. In addition, the “Post-emergence herbicidal activity, ALOMY (damage score 0-5)” value in assay [10] (rate 1000 g/ha) is listed as 1. For the same molecule, in [11] (rate 1000 g/ha), the “Post-emergence herbicidal activity, SETFA (damage score 0-5)” value was 5. In addition, the “Post-emergence herbicidal activity, TRAZW (damage score 0-5)” value in [12] (rate 1000 g/ha) amounted to 3.
